Assay results taken from patent US20150191469A1, “COMPOUNDS AND METHODS FOR TREATING HIV” (priority 2012, published 2015).

What follows are molecules tested on HIV (assay: MT4 assay: antiviral HIV activity (cell protection, cell titer glo readout at 96 hours)). Settings: Human immunodeficiency virus 1, MT4, 96 h, MT4 cells, cell titer glo readout at 96 hours, 10 point dose response; read-out: HIV MT4 Assay IC50.
Assay type: cell-based
Experimental: Antiviral HIV activity and cytotoxicity values for compounds of the invention from Table 1 were measured in parallel in the HTLV-1 transformed cell line MT-4 based on the method previously described (Hazen et al., 2007, In vitro antiviral activity of the novel, tyrosyl-based human immunodeficiency virus (HIV) type 1 protease inhibitor brecanavir (GW640385) in combination with other antiretrovirals and against a panel of protease inhibitor-resistant HIV (Hazen et al., “In vitro antiviral activity of the novel, tyrosyl-based human immunodeficiency virus (HIV) type 1 protease inhibitor brecanavir (GW640385) in combination with other antiretrovirals and against a panel of protease inhibitor-resistant HIV”, Antimicrob. Agents Chemother. 2007, 51: 3147-3154; and Pauwels et al., “Sensitive and rapid assay on MT-4 cells for the detection of antiviral compounds against the AIDS virus”, J. of Virological Methods 1987, 16: 171-185).
Luciferase activity was measured 96 hours later by adding a cell titer glo (Promega, Madison, Wis.). Percent inhibition of cell protection data was plotted relative to no compound control. Under the same condition, cytotoxicity of the compounds was determined using cell titer Glo™ (Promega, Madison, Wis.). IC50s were determined from a 10 point dose response curve using 3-4-fold serial dilution for each compound, which spans a concentration range >1000 fold.
These values are plotted against the molar compound concentrations using the standard four parameter logistic equation:
y=((Vmax*x̂n)/(K̂n+x̂n))+Y2
Y2=minimum y n=slope factor
Vmax=maximum y x=compound concentration [M]

| IC50 | Compound |
| --- | --- |
| 45 nM | COCCN1CCCN(c2cc(-c3cc4c(-c5cc(F)c6c(c5C)CCCO6)c([C@H](OC(C)(C)C)C(=O)O)c(C)nc4n3C)ccn2)CC1 (atropisomer, axis not shown) [Example 103] |
| 37.5 nM | Cc1nc2c(cc(-c3ccnc(N4CCCN(C(=O)C5CC5)CC4)c3)n2C)c(-c2cc(F)c3c(c2C)CCCO3)c1[C@H](OC(C)(C)C)C(=O)O (atropisomer, axis not shown) [Example 104] |
| 45 nM | Cc1nc2c(cc(-c3ccnc(N4CCc5cc(-n6c(C)ccc6C)ccc5C4)c3)n2C)c(-c2cc(F)c3c(c2C)CCCO3)c1[C@H](OC(C)(C)C)C(=O)O (atropisomer, axis not shown) [Example 106] |
| 131 nM | Cc1nc2c(cc(-c3ccnc(N4CCCN(C(=O)C5CCOCC5)CC4)c3)n2C)c(-c2cc(F)c3c(c2C)CCCO3)c1[C@H](OC(C)(C)C)C(=O)O (atropisomer, axis not shown) [Example 108] |
| 121 nM | COc1ccccc1[C@H]1[C@@H]2CN(c3cc(-c4cc5c(-c6cc(F)c7c(c6C)CCCO7)c([C@H](OC(C)(C)C)C(=O)O)c(C)nc5n4C)ccn3)C[C@@H]21 (atropisomer, axis not shown) [Example 109] |
| 27.5 nM | Cc1nc2c(cc(-c3ccnc(N4C[C@@H]5CC[C@@H](C5)C4)c3)n2C)c(-c2cc(F)c3c(c2C)CCCO3)c1[C@H](OC(C)(C)C)C(=O)O (atropisomer, axis not shown) [Example 111] |
| 20 nM | Cc1nc2c(cc(-c3ccnc(N4CCCN(C5CCOCC5)CC4)c3)n2C)c(-c2cc(F)c3c(c2C)CCCO3)c1[C@H](OC(C)(C)C)C(=O)O (atropisomer, axis not shown) [Example 113] |
| 25 nM | Cc1nc2c(cc(-c3ccnc(N4CCCN(S(=O)(=O)C5CC5)CC4)c3)n2C)c(-c2cc(F)c3c(c2C)CCCO3)c1[C@H](OC(C)(C)C)C(=O)O (atropisomer, axis not shown) [Example 114] |
| 15.6 nM | Cc1nc2c(cc(-c3ccnc(N4CCN(C(=O)N(C)C)CC4)c3)n2C)c(-c2cc(F)c3c(c2C)CCCO3)c1[C@H](OC(C)(C)C)C(=O)O (atropisomer, axis not shown) [Example 115] |
| 39.1 nM | Cc1nc2c(cc(-c3ccnc(N4CCCN(C5CCC5)CC4)c3)n2C)c(-c2cc(F)c3c(c2C)CCCO3)c1[C@H](OC(C)(C)C)C(=O)O (atropisomer, axis not shown) [Example 117] |
| 15 nM | Cc1nc2c(cc(-c3ccnc(N4CCN(C5CC5)CC4)c3)n2C)c(-c2cc(F)c3c(c2C)CCCO3)c1[C@H](OC(C)(C)C)C(=O)O (atropisomer, axis not shown) [Example 118] |
| 20 nM | COCCS(=O)(=O)N1CCCN(c2cc(-c3cc4c(-c5cc(F)c6c(c5C)CCCO6)c([C@H](OC(C)(C)C)C(=O)O)c(C)nc4n3C)ccn2)CC1 (atropisomer, axis not shown) [Example 119] |
| 45 nM | Cc1nc2c(cc(-c3ccnc(N4CC[C@@H](N(C)C)C4)c3)n2C)c(-c2cc(F)c3c(c2C)CCCO3)c1[C@H](OC(C)(C)C)C(=O)O (atropisomer, axis not shown) [Example 120] |
| 41.5 nM | COCCC(=O)N1CCCN(c2cc(-c3cc4c(-c5cc(F)c6c(c5C)CCCO6)c([C@H](OC(C)(C)C)C(=O)O)c(C)nc4n3C)ccn2)CC1 (atropisomer, axis not shown) [Example 125] |
| 3.6 nM | Cc1nc2c(cc(-c3ccnc(N4CCN(C5CCOCC5)CC4)c3)n2C)c(-c2cc(F)c3c(c2C)CCCO3)c1[C@H](OC(C)(C)C)C(=O)O (atropisomer, axis not shown) [Example 127] |
| 10.3 nM | Cc1nc2c(cc(-c3ccnc(N4CCCN(C5(C)COC5)CC4)c3)n2C)c(-c2cc(F)c3c(c2C)CCCO3)c1[C@H](OC(C)(C)C)C(=O)O (atropisomer, axis not shown) [Example 128] |

| IC50 | Compound |
| --- | --- |
| 291 nM | Cc1nc2c(cc(-c3cnn(CC4CN(C5CCOCC5)C4)c3)n2C)c(-c2cc(F)c3c(c2C)CCCO3)c1[C@H](OC(C)(C)C)C(=O)O (atropisomer, axis not shown) [Example 130] |
| 89.5 nM | Cc1nc2c(cc(-c3ccc(F)cc3)n2C)c(-c2cc(F)c3c(c2C)CCCO3)c1[C@H](OC(C)(C)C)C(=O)O (atropisomer, axis not shown) [Example 131] |
| 32.9 nM | CCCn1cc(-c2cc3c(-c4cc(F)c5c(c4C)CCCO5)c([C@H](OC(C)(C)C)C(=O)O)c(C)nc3n2C)cn1 (atropisomer, axis not shown) [Example 132] |
| 104 nM | Cc1nc2c(cc(-c3cnn(C4CCN(C5COC5)CC4)c3)n2C)c(-c2cc(F)c3c(c2C)CCCO3)c1[C@H](OC(C)(C)C)C(=O)O (atropisomer, axis not shown) [Example 133] |
| 39.2 nM | Cc1nc2c(cc(-c3ccc4c(cnn4C)c3)n2C)c(-c2cc(F)c3c(c2C)CCCO3)c1[C@H](OC(C)(C)C)C(=O)O (atropisomer, axis not shown) [Example 134] |
| 126 nM | Cc1nc2c(cc(-c3ccc4c(c3)N(C)CCO4)n2C)c(-c2cc(F)c3c(c2C)CCCO3)c1[C@H](OC(C)(C)C)C(=O)O (atropisomer, axis not shown) [Example 135] |
| 42.5 nM | Cc1nc2c(cc(-c3ccc4nccn4c3)n2C)c(-c2cc(F)c3c(c2C)CCCO3)c1[C@H](OC(C)(C)C)C(=O)O (atropisomer, axis not shown) [Example 136] |
| 43.8 nM | Cc1nc2c(cc(-c3ccc4c(c3)CCN(C)C4=O)n2C)c(-c2cc(F)c3c(c2C)CCCO3)c1[C@H](OC(C)(C)C)C(=O)O (atropisomer, axis not shown) [Example 137] |
| 487 nM | Cc1nc2c(cc(-c3ccnc(C(=O)N4CCN(S(C)(=O)=O)CC4)c3)n2C)c(-c2cc(F)c3c(c2C)CCCO3)c1[C@H](OC(C)(C)C)C(=O)O (atropisomer, axis not shown) [Example 146] |
| 45.3 nM | Cc1nc2c(cc(-c3ccnc(C(=O)Nc4cnn(C)c4)c3)n2C)c(-c2cc(F)c3c(c2C)CCCO3)c1[C@H](OC(C)(C)C)C(=O)O (atropisomer, axis not shown) [Example 147] |
| 40.1 nM | Cc1nc2c(cc(-c3ccnc(C(=O)Nc4ccnn4C)c3)n2C)c(-c2cc(F)c3c(c2C)CCCO3)c1[C@H](OC(C)(C)C)C(=O)O (atropisomer, axis not shown) [Example 148] |
| 219 nM | Cc1nc2c(cc(-c3ccnc(C(=O)NCCN4CCCC4=O)c3)n2C)c(-c2cc(F)c3c(c2C)CCCO3)c1[C@H](OC(C)(C)C)C(=O)O (atropisomer, axis not shown) [Example 149] |
| 9360 nM | Cc1nc2c(cc(-c3ccnc(C(=O)NCc4c[nH]cn4)c3)n2C)c(-c2cc(F)c3c(c2C)CCCO3)c1[C@H](OC(C)(C)C)C(=O)O (atropisomer, axis not shown) [Example 150] |
| 43.6 nM | Cc1nc2c(cc(-c3ccnc(C(=O)NCc4ccc(F)cc4)c3)n2C)c(-c2cc(F)c3c(c2C)CCCO3)c1[C@H](OC(C)(C)C)C(=O)O (atropisomer, axis not shown) [Example 151] |
| 72.4 nM | Cc1nc2c(cc(-c3ccnc(C(=O)NC4CCCCC4)c3)n2C)c(-c2cc(F)c3c(c2C)CCCO3)c1[C@H](OC(C)(C)C)C(=O)O (atropisomer, axis not shown) [Example 152] |

| Compound | IC50 |
| --- | --- |
| Cc1nc2c(cc(-c3ccnc(N4C[C@@H]5CC[C@H]4CN(C4COC4)C5)c3)n2C)c(-c2cc(F)c3c(c2C)CCCO3)c1[C@H](OC(C)(C)C)C(=O)O (atropisomer, axis not shown) [Example 122] | 11.6 nM |
